Three molecules from patent publication US9120854B2, “Detection and treatment of pancreatic, ovarian and other cancers” (SEATTLE GENETICS, INC., priority 2008, dated 2015) can be followed below.

Read-outs that look alike come from different tables or passages of the source. Square brackets hold non-standard residues; d marks the D form. Peptide text beside a SMILES is read from it. Dolaproine = CO[C@@H]([C@@H]1CCCN1)[C@@H](C)C(=O)O; Dil = CC[C@H](C)[C@H](NC)[C@@H](CC(=O)O)OC; NMeV = CN[C@H](C(=O)O)C(C)C

For orientation: IC50 means the concentration that gives 50% inhibition.

One experiment deals with SKOV-3 cells. Nature of the experiment: In vitro cytotoxic activity of h1F6 antibody drug conjugates on SKOV-3 cells (CelltiterGlo viability). Format: cell-based. To be noted: 96 hours, viability by Promega CelltiterGlo. How it is done: (See International Patent Publication WO 2006-113909.) The cells were incubated with the following anti-CD70 antibody drug conjugates: h1F6-vc-MMAF(4), h1F6vc-MMAE(4), 1F6mc-MMAF(4), or h1F6mc-MMAF(8) or free MMAF. (See the specification and U.S. Patent Application Publication Nos. 2005-0238649 and 2006-0233794 for a description of the drug linkers. The number in parentheses after each conjugate indicates the average drug loading per antibody.) The SKOV-3 cells were incubated with the conjugates at the indicated concentrations for 96 hours. For these studies, viability was determined using Promega CelltiterGlo.
Background: ATP-based viability assays read luminescence as a measure of living cells.

For experiment [1], the system named is native CD70 protein (modified cynomolgus CD70). Nature of the experiment: Binding of h1F6 to native CD70 on transfected pancreatic cell lines. As to conditions: transfected HPAFII, PANC-1 and MiaPaCa-2 cell lines.

On to `CC[C@H](C)[C@@H]([C@@H](CC(=O)N1CCC[C@H]1[C@H](OC)[C@@H](C)C(=O)N[C@@H](Cc1ccccc1)C(=O)O)OC)N(C)C(=O)[C@@H](NC(=O)[C@@H](NC)C(C)C)C(C)C` [MMAF, dovaline-valine-dolaisoleunine-dolaproine-phenylalanine, reference compound] (H-[NMeV]V[Dil][Dolaproine]F-OH), for which, in the experiment with SKOV-3 cells (free MMAF, read-out: IC50), the IC50 was found to be 18 nM.
In the case of “h1F6: humanized form of anti-CD70 monoclonal antibody 1F6, binds native CD70”, the “binding to native CD70 protein” value in experiment [1] is recorded as “binds”.

B1: h1F6mc-MMAF(8) (conjugate, chains of the INN, looked up)
VH: QVQLVQSGAEVKKPGASVKVSCKASGYTFTNYGMNWVRQAPGQGLKWMGWINTYTGEPTYADAFKGRVTMTRDTSISTAYMELSRLRSDDTAVYYCARDYGDYGMDYWGQGTTVTVSS
VL: DIVMTQSPDSLAVSLGERATINCRASKSVSTSGYSFMHWYQQKPGQPPKLLIYLASNLESGVPDRFSGSGSGTDFTLTISSLQAEDVAVYYCQHSREVPWTFGQGTKVEIK
modifications: maleimidocaproyl-MMAF, 8 drugs per antibody
In the experiment with SKOV-3 cells, B1 gave a half-inhibitory concentration (IC50) of 0.012 µg/mL.
